Measured values: patent publication US9701959B2, “High throughput screen for biologically active polypeptides” (Invenra Inc., priority 2012, dated 2017)
Ends that are not written are not given here.

Legend:
E. coli MG1655 = test: Minimal Inhibitory Concentration (MIC) in E. coli, Alamar Blue, hit validation; assay type: cell-based; conditions: MIC at 18 hrs in E. coli; overnight at 35° C., triplicate
Experimental: Equipment: • Absorption and fluorescence plate reader—Tecan Safire • CO2 Incubator
Reagents: • Six chemically synthesized peptides—Biosynthesis Inc. • E. coli MG1655 (ATCC) • LB media (Sigma-Aldrich) • Alamar Blue assay kit (Life Tech)
3) Start an overnight culture of E. coli MG1655 in 5 mL of LB and grow at 37° C. with shaking at 200 rpm. 4) In the morning dilute overnight culture to OD600=0.00075 in 10 mL LB+1 mL Alamar Blue Stain. 5) Make seven (7), 1:2 serial dilutions of each peptide starting at […] in a final volume of 70 μL of PBS. 6) Add 20 μL of serial dilution of peptides in triplicate to a white small volume 96-well plate. Add 20 μl of PBS alone to the 8th well. 7) Add 120 μL of E. coli/Alamar blue dilution to each of the test wells. 8) Incubate overnight (18 hrs) at 35° C.

[1] = test system: NF-κB-Jurkat cells (GFP reporter construct for NF-kappa-B); test: Single bead bioactivity testing in 1536-well microtiter plate (GFP fluorescence); assay type: cell-based; conditions: 1 and 2 beads per well, 4,800 cells per well, 18 hours at 37 C
Experimental: Equipment: • Cell culture incubator (Fisher Scientific) • Microplate reader (Tecan Safire) • Black, clear bottom, 1536-well microtiter plate (Corning)
1) Dilute NF-κB-Jurkat cells to 4×10^6 cells/ml using the supplemented RPMI 1640 growth media.
2) Prepare the 1536 well for the following layout:
3) Add 7. μl of supplemented RMPI 1640 media to all wells labeled “M” in the plate layout above.
4) Create the following cell master mix:
5) Add 3 μl of the cell master mix to the wells labeled “A” and “B” so that when the test and control beads are added the final number of cells is 4,800 per well.
6) Dilute the TNF-bead and Control-beads in supplemented RPMI 1640 to 1-2 beads per 2 μl.
7) Add 2 μl of TNF-beads to the wells of the plate labeled “A” and add 2 μl of the control-beads to the wells of the plate labeled “B”.
8) Incubate the plate for 18 hours at 37 C and 5% CO2.
9) Measure the GFP fluorescence of each well using the Tecan Safire plate reader.
The experiment was performed to determine if a single bead could be used to screen for activity of a protein that induces a cell-reporter in a microtiter plate. 1536 well plates were used to decrease the volume in which the assay was performed. Control beads consisting of a scFv antibody fragment were generated using the same protocol as the tested TNF-beads. The control beads were used to establish a baseline signal for the assay. […]

Molecule	Ave MIC (E. coli MG1655)	GFP signal relative to baseline (control beads) [1]
CC[C@H](C)[C@H](NC(=O)CN)C(=O)NCC(=O)N[C@@H](C)C(=O)N[C@H](C(=O)N[C@@H](CC(C)C)C(=O)N[C@@H](CCCCN)C(=O)N[C@H](C(=O)N[C@@H](CC(C)C)C(=O)N[C@H](C(=O)N[C@H](C(=O)NCC(=O)N[C@@H](CC(C)C)C(=O)N1CCC[C@H]1C(=O)N[C@H](C(=O)N[C@@H](CC(C)C)C(=O)N[C@H](C(=O)N[C@@H](CO)C(=O)N[C@@H](Cc1c[nH]c2ccccc12)C(=O)N[C@H](C(=O)N[C@@H](CCCCN)C(=O)N[C@@H](CO)C(=O)N[C@@H](CCCCN)C(=O)N[C@@H](CCCNC(=N)N)C(=O)N[C@@H](CCC(N)=O)C(=O)N[C@@H](CCCCN)C(=O)O)[C@@H](C)CC)[C@@H](C)CC)[C@@H](C)O)[C@@H](C)O)[C@@H](C)O)C(C)C)C(C)C [Hit 1]	12 µM	
GIGAIAKVLSTGLPRLISWIKGKRIR [Cont 2, reference compound]	15 µM	
GIGALIKVLTTGLPMLISWIKRKRNK [Hit 2]	14 µM	
GIGATVKVLSTGLRFLISWIKRKRKY [Cont 1, reference compound]	>30 µM	
GIGAVLKVLGTGLPALISWIKFKRFP [Cont 3, reference compound]	>30 µM	
GIGAWTKVLTTGLPGLISWIKRKRLR [Hit 3]	20 µM	
TNF-beads: His-tag, spacer, TEV cleavage site, spacer, and the soluble form of TNF-alpha, SEQ ID NO: 14, on beads		increased signal over the baseline
